# Tests used:
# [1] = test system: DA3 mammary adenocarcinoma; assay: Winn assay: DA3 cells co-inoculated with splenocytes of cured mice; assay type: in vivo, BALB/c mice; settings: 10^5 DA3 cells + 10^7 splenocytes of mice cured via LEFCT-EC with taxol
# [2] = test system: DA3 mammary adenocarcinoma; assay: LEFCT-EC in mice bearing DA3 mammary adenocarcinoma; assay type: in vivo, BALB/c mice
# Protocol: Animals: BALB/c female mice between the ages of 8 to 12 weeks obtained from the breeding colony of Tel-Aviv University, Israel were used in vivo tumor therapy experiments. Animal care and experimentation was carried out in accordance with Tel-Aviv University guidelines.
# Tumor cell line: The highly metastatic, poorly immunogenic mammary adenocarcinoma cell line DA3 (Lopez D M. et al., 1981. J Natl Cancer Inst. 66:191) was used to generate mammary carcinoma tumors in mice. Cells were grown in DMEM supplemented with 100 U/ml penicillin, 100 μg/ml streptomycin, 4 mM glutamine, 1 mM sodium pyruvate, 1% non-essential amino acids and 10% heat-inactivated fetal calf serum (FCS), and cultured at 37° C. in a humidified incubator in an atmosphere of 7% carbon dioxide and 93% air. Tumors of this cell line grown to 1 cm in diameter produce metastatic cells, mainly in the lungs.
# Reagents: Taxol (Mead Johnson Oncology Products, A Bristol-Myers Squibb, USA), obtained as a sterile nonpyrogenic solution containing 6 mg/ml paclitaxel, 527 mg/ml of purified Cremophor EL (polyoxyethylated castor oil) and 49.7% (v/v) dehydrated ethanol; and bleomycin (MegaPharm, Israel) were the anti cancer drugs used.
# Low-strength electric field enhanced cancer chemotherapy protocol: Mice were subjected to a single treatment of LEF-chemotherapy, once primary tumors reached 5 mm in diameter (about 60-70 mm^3) (11-17 days following subcutaneous tumor cell inoculation). Up to 100 μl of chemotherapeutic agents was injected into the tumor loci. The exposure to electric field was carried out as described above in Example 2 of the Examples section.
# Effect of LEFCT-EC using bleomycin or taxol on the survival of DA3 mammary adenocarcinoma bearing nice: BALB/c mice bearing DA3 mammary adenocarcinoma were treated by LEF-chemotherapy with intratumoral taxol (20 mg/kg) (FIG. 19) or bleomycin (30 U/kg) (FIG. 20) administration and their survival rate was compared with that of mice treated only with LEF or chemotherapy.
# [3] = test system: DA3 mammary adenocarcinoma; assay: Rechallenge with DA3 cells of mice cured by LEFCT-EC with taxol; assay type: in vivo, BALB/c mice; settings: challenged with 10^5 DA3 cells
# Protocol: Effect of curative LEFCT-EC treatment with taxol on generation of anti DA3 tumor resistance: The resistance of mice previously cured of DA3 mammary carcinoma via LEFCT-EC treatment with taxol to tumor growth following challenge by inoculation with 10^5 DA3 cells 120-180 days following initial tumor inoculation was analyzed. […] The MSTs of first-time inoculated normal mice and challenged mice were 38.1 and 46.7 days, respectively. Thus, curative treatment of DA3 tumors via LEFCT-EC treatment with taxol has the capacity to induce significant protection against growth of such a tumor in cured mice challenged with a tumorigenic dose thereof.
# B16-F10.9 melanoma [4] = assay: Rechallenge with B16-F10.9 cells of mice cured by LEFCT-EC; assay type: in vivo, C57BL/6 mice
# Description: FIG. 17 is a data plot depicting the cumulative survival of mice previously bearing B16-F10.9 melanoma and cured by LEFCT-EC with cisplatin or taxol following challenge with B16-F10.9 melanoma cells. Mice cured by LEF-chemotherapy that survived for 120-180 days after initial tumor inoculation, were challenged with 2×10^5 B16-F10.9 cells subcutaneously.
# Effect of curative LEFCT-EC treatment on generation of anti B16-F10.9 tumor resistance: The resistance of mice cured of B16-F10.9 melanoma by LEF-chemotherapy was analyzed by challenging such cured mice with a tumorigenic dose of B16-F 10.9 melanoma cells.
# B16-F10.9 melanoma [5] = assay: Surgery with taxol versus LEFCT-EC with taxol in B16-F10.9 melanoma; assay type: in vivo, C57BL/6 mice
# Protocol: Comparison of surgery and LEFCT-EC: To compare the efficacy of LEFCT-EC to that of conventional surgery and chemotherapy treatments, C57BL/6 male mice (8-12 weeks old) were injected with 10^5 B16-F10.9 cells subcutaneously. Once the tumors reached 5 mm in diameter (11-17 days following inoculation), they were surgically removed. One experimental group received a single dose of taxol (20 mg/kg) subcutaneously in close proximity to the site of the operation one day following tumorectomy.
# B16-F10.9 melanoma [6] = assay: LEFCT-EC in mice bearing subcutaneous B16-F10.9 melanoma; assay type: in vivo, C57BL/6 mice; settings: for Tumor size (mean ± standard error): 7 days after treatment
# Protocol: Animals: C57BL/6 male mice were obtained from the breeding colony of Tel-Aviv University, Israel. Mice were used at 8-12 weeks of age. Animal care and experimentation was carried out in accordance with Tel-Aviv University guidelines.
# Melanoma tumor cell line: The highly metastatic, poorly immunogenic B16-F10.9 (F10.9) subclone of the B16 melanoma cell line was used to generate melanoma tumors in mice (Eisenbach L. et al., 1984. Int J Cancer 34:567). Cells were maintained in DMEM supplemented with 100 U/ml penicillin, 100 μg/ml streptomycin, 4 mM glutamine, 1 mM sodium pyruvate, 1% non-essential amino acids and 10% heat-inactivated fetal calf serum (FCS); and were cultured at 37° C. in a humidified incubator in an atmosphere of 7% carbon dioxide and 93% air.
# Tumor generation protocol: F10.9 tumors were induced in C57BL/6 mice by subcutaneous injection of 2×10^5 F10.9 cells. Mice were subjected to experimental treatments once tumors reached 5 mm in diameter (about 60-70 mm^3). Chemotherapeutic drugs: The following chemotherapeutic drugs used were: cis-platinum (II) diamminedichloride (cisplatin; #P-4394, Sigma, Israel), dissolved in PBS for injections; Taxol (Mead Johnson Oncology Products, A Bristol-Myers Squibb, USA), obtained as a sterile nonpyrogenic solution containing 6 mg/ml paclitaxel, 527 mg/ml of purified Cremophor EL (polyoxyethylated castor oil) and 5-FU (Abic, Israel).
# Low-strength electric field enhanced cancer therapy protocol: Mice were subjected to a single treatment of LEFCT-EC, once tumors reached 5 mm in diameter (11-17 days following tumor cell inoculation). Volumes of up to 100 μl of chemotherapeutic agents were injected into tumor loci, and exposures to electric fields were carried out 3-4 min following intratumoral injection of chemotherapeutic agents. To expose tumors to electric fields, stainless steel electrode needles (Karlsbader insect pins No 0. BioQuip Products, USA) soldered at their brassy ends with thin isolated copper wires were used. Electrodes were inserted to a depth of about 7 mm percutaneously into and in the immediate vicinity of the tumor; one cathode needle in the center of the tumor and three peripheral anodes, at a distance of about 5 mm from the cathode. The needles were connected to an electric pulse generator (Grass S48 Stimulator, USA). The field strength applied was about 40 V/cm; the repetition frequency, 500 Hz; and the pulse width, 180 μs. All mice were anesthetized prior to LEF treatment.
# Statistical analysis: Statistical analysis of survival times (Kaplan-Meir test), survival comparisons between groups (Mantel-Cox test) and tumor volume differences between groups (Kolmogorov-Smirnov test) were performed using StatSoft Statistica statistical software. The 10-15% mortality rate in the 5 days following LEF or LEF-chemotherapy was considered as treatment-caused, therefore such cases of mortality were excluded.
# Tumor volume determination: performed as described above in Example 1 of the Examples section.
# [7] = chemotherapy alone, intratumoral, no LEF
smiles,measurement,setting,value
"CC(=O)O[C@H]1C(=O)[C@@]2(C)[C@H]([C@H](OC(=O)c3ccccc3)[C@]3(O)C[C@H](OC(=O)[C@H](O)[C@@H](NC(=O)c4ccccc4)c4ccccc4)C(C)=C1C3(C)C)[C@]1(OC(C)=O)CO[C@@H]1C[C@@H]2O [taxol, paclitaxel]",Mean survival time,[1],39 days
same,Tumor size,[1]; 14 days after inoculation,143 µL
same,"survival time, Mean",[2]; LEF-chemotherapy with the drug,73.8
same,"survival time, Median",[2]; LEF-chemotherapy with the drug,54.5
same,cure rate,"[2]; LEF-chemotherapy, intratumoral taxol 20 mg/kg or bleomycin 30 U/kg, 180 days after tumor inoculation",17%
same,"survival time, Mean","[2]; drug alone, intratumoral",43.9
same,"survival time, Median","[2]; drug alone, intratumoral",48
same,MST of challenged mice,[3],46.7 days
same,MST of challenged mice,"B16-F10.9 melanoma [4]; mice cured by LEFCT-EC with the drug, challenged with 2×10^5 B16-F10.9 cells",73.2 days
same,challenged mice that did not develop tumor,B16-F10.9 melanoma [4]; mice previously treated by LEFCT-EC with taxol,about 23.5%
same,cure rate,B16-F10.9 melanoma [5]; LEF-chemotherapy with taxol,26%
same,survival extension,B16-F10.9 melanoma [5]; LEF-chemotherapy with taxol,84 days
same,MST,B16-F10.9 melanoma [5]; surgery + taxol 20 mg/kg subcutaneously,55 days
same,cure rate,B16-F10.9 melanoma [5]; surgery + taxol 20 mg/kg subcutaneously one day after tumorectomy,13%
same,Tumor size (mean ± standard error),"B16-F10.9 melanoma [6]; LEF-CT (drug + LEF), cisplatin 4 mg/kg, bleomycin 8 U/kg, 5-FU 150 mg/kg, taxol 20 mg/kg",71 ± 25 mm^3
same,mean survival time (MST),"B16-F10.9 melanoma [6]; LEF-chemotherapy: intratumoral drug + LEF about 40 V/cm 12 min, 120 days (cisplatin) or 180 days (taxol, bleomycin) after inoculation",83.5 days
same,cure rate / animals alive and free of visible tumor,"B16-F10.9 melanoma [6]; LEF-chemotherapy, 180 days after tumor inoculation",26%
same,effect of drug alone on survival,B16-F10.9 melanoma [6]; [7],no effect
same,mean survival time (MST),B16-F10.9 melanoma [6]; [7],36.7 days
same,Tumor size (mean ± standard error),"B16-F10.9 melanoma [6]; intratumoral drug injection alone, same doses",927 ± 177 mm^3
same,"LEFCT-EC treated mice that died two months and later after treatment with pulmonary metastatic foci, free of primary tumor","B16-F10.9 melanoma [6]; pooled statement for cisplatin, taxol or bleomycin",About 10%

# Reference: patent US7395112B2, “Method and apparatus for treating tumors using low strength electric fields” (priority 2002, dated 2008)
